The values that follow come from patent US9491935B2, “Animal models of neurological disorders” (Ann & Robert H. Lurie Children's Hospital of Chicago, priority 2009, dated 2016).

For one test, the system named is CA1 pyramidal neurons. The test is described as follows: IPSC recordings in CA1 pyramidal cells of hippocampal slices. It is filed as cell-based, mouse. The conditions noted are these: 0.25 mM in recording ACSF; for spontaneous IPSCs (sIPSCs, mIPSCs): Evf2TS/TS and wild-type mice; for evoked IPSCs: wild-type and Evf2TS/TS mice. Here is the method: Transverse hippocampal slices ([…]) were prepared from 3-5-month-old Evf2^TS/TS mice. Slices were cut in ice-cold (˜4° C.) oxygenated ACSF and then were allowed to recover for 1-2 h before being transferred to the recording chamber where they were continuously superfused with solution heated to 32-34° C. and saturated with 95% O2/5% CO2. The standard extracellular solution contained 124 mM NaCl, 3 mM KCl, 1.25 mM KH2PO4, 2.0 mM CaCl2, 1.3 mM MgCl2, 26 mM NaHCO3 and 10 mM glucose. The concentration of MgCl2 was raised to 2.0 mM and that of CaCl2 decreased to 1.4 mM in the slicing solution. […].
Somatic whole-cell recordings were obtained from CA1 pyramidal neurons under visual guidance using infrared differential interference contrast microscopy. Patch pipettes were pulled from borosilicate glass capillary tubing (A-M Systems). Internal solution for the patch pipettes contained 120 mM cesium methane sulphonate, 10 mM CsCl, 5 mM NaCl, 10 mM HEPES, 10 mM EGTA, 5 mM TEA-Cl, 4 mM Mg-ATP, 0.3 mM GTP and 5 mM QX-314 (pH 7.3-7.4), adjusted with CsOH, osmolarity 290±10 mOsm.
Voltage-clamp recordings were performed using Axopatch-200B (Axon Instruments). In all of our recordings, series resistance was <22 MΩ and was compensated at 80%. The recorded signal was low-pass filtered at 5 kHz and digitized at 10 kHz with a PCI-MIO-16E-4 board (National Instruments). All data were stored on a PC computer with custom software using C++ Builder 5.0 (Borland) and a NI DAQ 6.5 driver (National Instruments).
Evoked IPSCs were elicited at 0.1-0.07 Hz with a bipolar Pt/Ir electrode (2×25 μn) positioned on the stratum radiatum within 150 μm of the cell being recorded (Schaffer collateral-commisural fibers location site). At the beginning of each experiment, stimulus intensity was adjusted to evoke […] with amplitude of 0.4-0.2 nA. Evoked IPSCs were recorded at holding potential from −70 mV to +20 mV with 10-mV voltage steps after blocking EPSCs with a solution containing CNQX and D-AP5.
Spontaneous IPSCs were analyzed using MiniAnalysis 6.0.3 software (Synaptosoft). All events were manually selected on the basis of their kinetics. Between 250 and 450 individual events were analyzed for each cell. Post-recording analyses of evoked IPSPs were carried out using Clampfit 10 (Axon Instruments). All statistical values were evaluated with Origin 8 (MicroCal Software). Values are presented as mean±s.e.m. Statistical differences were established at P<0.05 using the Student t test, unless otherwise indicated.

The conditions of test [1]: administered 3 hours prior to cocaine; cited from earlier work.

As for Picrotoxin, in the test with CA1 pyramidal neurons, the “spontaneous IPSCs (sIPSCs, mIPSCs)” value is reported as “blocked all IPSC activity” and the “evoked IPSCs” value was “blocked evoked IPSCs”. For the same molecule, in the test on CA1 pyramidal neurons (listed as picrotoxin), the “spontaneous IPSCs (sIPSCs, mIPSCs)” value is “abolished” and the “evoked IPSCs” value is “abolished”.

Turning to `C=CC(N)CCC(=O)O` (centres unmarked) [GVG], the “locomotor response to cocaine” value in test [1] is “can attenuate locomotor response”.
